Data published in patent US6545041B2, “Tumor necrosis factor alpha (TNF-α) inhibiting pharmaceuticals” (Yessum Research Development Co. of the Hebrew University of …, priority 1995, dated 2003).
Where “and” joins values, the source holds several entries; their conditions need not be identical. Identical values can stand only once. Entries after “also recorded” stand apart in the source; their conditions may differ.

Columns and labels:
TNF [1] = assay: Serum TNF activity (bioassay) and levels (ELISA) in LPS treated mice; assay type: in vivo, mice (C57BL/6); conditions: 100 μg LPS ip with 200 μg/mouse compound, 90 min
Protocol: An early response to LPS administration is the elevation of serum levels of TNF, which peaks at 1.5-2 hr after LPS administration. Mice treated with LPS serve as a model for the effect of drugs on reducing TNF levels under these conditions.
Serum levels of TNF peak within 1.5 hr following LPS administration, and at this time point, we assessed both TNF activity and levels in the serum.
Mice (C57BL/6) were injected ip with 100 μg LPS, concomitantly with HU-211, HU-210, or HU-245 (200 μg/mouse), and 90 min later they were bled, the sera separated and TNF was assayed for its activity (bioassay) and levels (using ELISA kit).

LPS treated mice = assay: Survival of LPS treated mice; assay type: in vivo, BALB/c male mice; conditions: for survival rate / mortality: 24 hours
Protocol: The effect of HU-211 on the survival of mice, in response to administration of LPS was assessed. The survival was followed up to 48 hr.
Animals are administered with either HU-211 at a dose of 10 mg/kg i.p. or vehicle alone (10 ml/kg i.p.), and 30 minutes later with LPS IV. Two dose levels of LPS were tested in the present study: 10 and 15 mg/kg.
Mortality rate was recorded once a day for 2 days.

LPS treated rats = assay: LPS-induced hypotension and hematocrit in rats; assay type: in vivo, Sprague Dawley rats
Protocol: A prominent manifestation of endotoxemia is hypotension, and the effect of a drug on mean arterial blood pressure (MABP) indicates its potency as an anti-endotoxic shock agent. The protective effect of a test compound is evaluated in rats treated with LPS, in which the blood pressure and other vital signs are monitored up to 4 hrs after induction of endotoxemia.
Rats were individually anesthetized with halothane in 70% nitrogen, 30% oxygen. The right femoral artery was catheterized using polyethylene tubes (PE-50, Clay Adams, USA), and connected to a computerized physiograph through a pressure transducer (XTT Vigo, USA). The animals are then connected via a rectal probe to the above physiological recorder. Rectal temperature is kept throughout the study between 37° C. and 38° C., using a heating lamp. Following 10-15 minutes of baseline recording, animals are intravenously administered an injection of saline, vehicle alone or HU-211 at a dose of 4 mg/kg. As soon as possible after completion of the first injection (2-5 minutes later) they are administered an intravenous injection of LPS at a dose of 15 mg/kg (in a volume of 3 ml/kg). Blood pressure and heart rate are recorded for the following 4 hrs. The hematocrit is measured and recorded just prior to drug administration, and 1, 2, and 3 hours later. At the end of the follow up period, animals are sacrificed by deep anesthesia with halothane.

[2] = system: D-galactosamine (D-GALN)-sensitized mice; assay: Lethal toxicity by LPS in D-galactosamine-sensitized mice (endotoxic shock); assay type: in vivo, mice (C57BL/6); conditions: for lethality in HU-211 treated group dead/total: LPS 10 ng/mouse + D-GALN, HU-211 7.5 mg/kg plus 8 hourly injections, 24 hrs, exp. no 1-3 and total, controls 20/20, 7.5 mg/kg
Protocol: The effect of HU-211 in endotoxic shock was assessed in a model of lethal toxicity by lipopolysacharide (LPS) in D-galactosamine (D-GALN)-sensitized mice (Galanos et al. PNAS 76: 5739, 1979, Lehman et al. J. Exp. Med. 165: 657, 1987). In this model 100% mortality occurs within 6-8 hrs of administration of the combined treatment.
LPS (10 ng/mouse) and D-GALN ([…]) were coadministered to 20 mice (C57BL/6). Half of the mice served as controls, and the other were treated within 5 min of injection with HU-211 (7.5 mg/kg body weight), followed by 8 additional injections every hour. The survival was followed up to 24 hrs, and the results of this experiment are depicted in Table 1.

TNF [3] = assay: Closed head injury (head trauma) model in rats: TNF, edema, clinical outcome; assay type: in vivo, rat; conditions: FIG. 4
Text: Closed head injury is associated with high mortality and morbidity. It induces edema formation, blood-brain-barrier (BBB) disruption, neuronal cell death and impairment of motor and cognitive functions. Animals subjected to head trauma in a controlled fashion serve as models in which to test drugs of therapeutic potential. Test compounds can be evaluated both for improved clinical outcome and for reduction of edema induced by closed head injury. The ability of compounds to reduce the severity of neurological symptoms and to reduce brain edema is considered a measure of their potency in reducing brain damage.
The effect of HU-211 on TNF production was assessed in a model of head trauma (HT) in rats. Injury was induced in anesthetized rats by a weight-drop device followed by a recovery period of up to 30 days. This type of trauma produces brain edema (i.e. increase in water content, decrease in specific gravity in the brain), breakdown of the blood brain barrier (BBB), clinical and cognitive dysfunction. […]
In this experiment we compared the effects of two agents: 1) pentoxyfilline (PTX), a methylxanthine known for its ability to prevent or attenuate the LPS-induced release of TNF both in vitro and in vivo. […] The levels of TNF were measured after CHI in order to determine whether the beneficial effect of HU-211 is also associated with suppression of TNF production or activity.

[4] = system: collagen induced arthritis; assay: Collagen type 2 induced arthritis; assay type: in vivo, CD-1 male mice; conditions: HU-211 20 mg/kg i.p. daily or every 3 days; p<0.01
Protocol: CD-1 male mice (27-33 gr.), five in each treatment group (supplied by Harlan Israel) were used in the present study. Each animal was administered with collagen type 2 (Sigma, batch no. 111H7180) 100 μg/ml in 0.1 ml complete Freund's adjuvant (Sigma batch no. 084H8800). The collagen was administered s.c. into the base of the tail. The volume of each hind paw was measured using a plathysmometer (Hugo Basill, Italy) before collagen administration and on days 1, 4, 7, 10, 13 and 16 of treatment (30 minutes after drug treatment).
Five treatment groups were tested in the present study: vehicle (blank cosolvent) 10 ml/kg once daily, HU-211 10 mg/kg every three days, HU-211 20 mg/kg once daily, HU-211 20 mg/kg every 3 days and diclofenac 10 mg/kg (10 ml/kg) every 3 days. All treatments were administered intraperitoneally. HU-211 was used from a 5% preparation in cosolvent (Pharmos batch no. PRN-C-08623041), by diluting with saline (B. Braun batch no. 3431A41A) 1:25. The same procedure was performed with blank cosolvent (Pharmos batch no. 608945). Diclofenac was prepared in Pharmos, batch no. LG-121\70 1 mg/ml. At the same time paws were measured they were clinically evaluated according to the following method (Williams R. O., Proc. Natl. Acad. Sci. USA: 89:9784-9788): 0—normal, 1—slight swelling and erythema, 2—pronounced edematous swelling and 3—joint rigidity. […]

EAE = assay: Experimental autoimmune encephalomyelitis (EAE) in Lewis rats; assay type: in vivo; conditions: single iv injection day 10 to 18 post induction, FIG. 6
Text: Autoimmune diseases are associated with elevated levels of TNF. The models which are most conveniently studied are experimental allergic encephalomyelitis (EAE) and experimental autoimmune arthritis in rodents. EAE is an autoimmune neurological disease elicited by sensitization of the animals to myelin basic protein from the central nervous system, which is also known as basic encephalitogenic protein. EAE is considered by many to represent a model of the human disease multiple sclerosis. Experimental autoimmune arthritis is induced in animals by immunization with collagen in complete Freund's adjuvant. The ability of compounds of the general formula I to prevent or attenuate the clinical symptoms of these autoimmune diseases was tested.
The Lewis rats used were 8 week old females (from OLAC, England). The animals (5 per cage) were maintained on a 12 hour light/12 hour dark regimen, at a constant temperature of 22° C., with food and water ad libitum. EAE was induced in these animals by immunization with purified guinea pig myelin basic protein emulsified in complete Freund's adjuvant. Guinea pig myelin basic protein (mbp) was prepared from spinal cord homogenates defatted with chloroform/ethanol and the isolated protein was purified using ion exchange chromatography. Each animal received 50 micrograms of the purified protein. […]

[5] = Phase I clinical trials, intravenous, healthy human volunteers; assay type: in vivo; conditions: dose ranges contemplated for humans
[6] = Solubility in water / aqueous solutions; assay type: physicochemical
Text: Among the novel compounds tested, monoesters including nicotinate, succinate and maleate are preferred. Most preferred compounds include the glycinate ester and N-substituted glycinate ester salts, such as the trimethyl- and triethylammonium acetate derivatives of HU-211. These novel compounds have the added advantage of being soluble in some aqueous solutions, whereas the parent compounds are extremely hydrophobic.
(§1) This makes the development of formulations suitable for intravenous administration of HU-211 difficult, hampering its clinical application. Water-soluble derivatives of HU-211 designed to readily release the drug by hydrolysis following i.v. administration might overcome this problem and will be used as prodrugs.

[7] = Passage of the blood-brain barrier
Text: as §1

TNF [8] = conditions: rats, 48 hours after HT; cited from earlier work
[9] = cited from earlier work
[10] = doses far exceeding those contemplated for repression of cytokines; cited from earlier work

CCCCCCC(C)(C)c1cc(O)c2c(c1)OC(C)(C)C1CC=C(C(=O)O)CC21 (stereo not shown) [HU-245]
TNF levels in serum (ELISA) (TNF [1]): significantly reduced

CCCCCCC(C)(C)c1cc(O)c2c(c1)OC(C)(C)[C@H]1CC=C(CO)C[C@H]21 [HU-211, (+)-(3S,4S)-1,1-dimethylheptyl homologue of 7-hydroxy-Δ^6-tetrahydrocannabinol]
TNF levels in serum (ELISA) (TNF [1]): significantly reduced; also recorded: attenuated the LPS-induced production and action of TNF to a very pronounced extent | TNF activity (S50) in serum, bioassay (TNF [1]; LPS control 1233±237): significantly reduced; also recorded: attenuated the LPS-induced production and action of TNF to a very pronounced extent | survival rate (LPS treated mice; LPS 10 mg/kg iv, HU-211 10 mg/kg i.p., vehicle 43%): 91% | mortality (LPS treated mice; LPS 10 mg/kg iv, HU-211 10 mg/kg i.p., vehicle 57%): 9% | survival (LPS treated mice; LPS 10 mg/kg iv, HU-211 10 mg/kg i.p., 48 hours, vehicle none survived): 33% | survival (LPS treated mice; LPS 10 mg/kg iv, HU-211 10 mg/kg i.p., 72 hours post LPS): None of the animals survived | mortality (LPS treated mice; LPS 15 mg/kg iv, HU-211 10 mg/kg i.p. 30 min before, vehicle 67%): 33% | survival rate (LPS treated mice; LPS 15 mg/kg iv, HU-211 10 mg/kg i.p., vehicle 33%): 67% | survival (LPS treated mice; LPS 15 mg/kg iv, HU-211 10 mg/kg i.p., 48 hours): none of the animals survived | time post-LPS at which normotension was regained (LPS treated rats; HU-211 treated rats): ≤ 30 min | duration of transient hypotension (LPS treated rats; HU-211 treated rats, evident 10 minutes after LPS): 5 to 10 min | LPS-induced increase in hematocrit (LPS treated rats; rats, HU-211 iv 2-3 minutes before LPS, LPS alone about 10% increase): prevented | LPS-induced drop in mean arterial blood pressure (MABP) (LPS treated rats; rats, LPS 15 mg/kg iv, HU-211 4 mg/kg iv pre-administration, LPS alone around 30% reduction): abolished | lethality in HU-211 treated group dead/total [2]: 1/5 and 1/10 and 0/5 | lethality in HU-211 treated group dead/total ([2]; pooled total of all experiments): 2/20 | survival ([2]; LPS + D-GALN mice, HU-211 7.5 mg/kg, total of experiments, controls 0%): 90% | brain levels of TNF after CHI, compared with pentoxyfilline (TNF [3]): significantly superior to that of pentoxyfilline | brain tissue water content (anti-edema effect) after CHI, compared with pentoxyfilline (TNF [3]): significantly superior to that of pentoxyfilline | clinical signs of arthritis (swelling of the paws) [4]: lowest number of these signs | mean clinical score (EAE): diminution of mean clinical score | toxicity or psychoactivity [5]: no evidence of toxicity or psychoactivity | solubility in water / aqueous solutions [6]: very poor solubility in water | passage of the blood-brain barrier [7]: readily passes the blood-brain barrier | edema and clinical outcome after head trauma (TNF [8]): reduced edema and improved the clinical outcome | cannabimimetic activity ([9]; doses several thousand times higher than the ED50 of HU-210): inactive as a cannabimimetic | stereotypy and locomotor hyperactivity [10]: induction of stereotypy and locomotor hyperactivity

CCCCCCC(C)(C)c1cc(O)c2c(c1)OC(C)(C)C1CC=C(CO)CC21 (stereo not shown) [HU-210, 7-hydroxy-Δ^6-tetrahydrocannabinol 1,1-dimethylheptyl homologue, reference compound]
cannabimimetic activity relative to Δ-1-tetrahydrocannabinol ([9]; in vivo): ~100 times
